Test results: patent US20130331445A1 (Axelar AB, priority 2010, published 2013)

How the values were obtained:
[1] = Solubility in 1% sodium dodecyl sulfate (SDS) by LC-UV; format: physicochemical; settings: aqueous with cosolvent or surfactant or cyclodextrin, thermodynamic from solid, 1% SDS, 24 hours rotation
Procedure: The solubility was determined in different media by use of LC-UV chromatography. An excess amount of substance was weighed in vials and 0.5 ml of the medium was added. The substance was rotated in the specific medium at ambient temperature for 24 hours, followed by filtering the supernatant using a hydrophilic PVDF (Millipore Corp.) 0.22 μm filter. The samples were then diluted with a 1:1 mixture of mobile phase A and B (see below) and analyzed using an Xterra™ MS C18, 50×2.1 mm column with UV detection at 288 nm. The mobile phase consisted of acetonitrile, water and trifluoroacetic acid, 5:95:0.1(A) and 99:1:0.1(B).

[2] = system: progressive non-small cell lung cancer (NSCLC); experiment: Phase I/II clinical trial in patients with progressive non-small cell lung cancer; format: in vivo
Procedure: The patients were assessed with imaging at the start of the study and thereafter every two months.

Q: What does the source list for `COc1cc(C2c3cc4c(cc3C(O)[C@H]3COC(=O)[C@@H]23)OCO4)cc(OC)c1OC` (stereo partly drawn) [picropodophyllin monohydrate]?
A: solubility at 24 h ([1]; ambient temperature): 210 µg/mL; solubility at 24 h ([1]; corresponds to the mg/ml value): 489 µM; patients with partial response according to RECIST criteria ([2]; NSCLC patients, 390 or 520 mg twice-daily): one; patients still alive at cut-off ([2]; of ten NSCLC patients, 390 or 520 mg twice-daily): five; patients with no detectable progression at cut-off ([2]; of the five NSCLC patients still alive, 390 or 520 mg twice-daily): two; median survival time ([2]; ten NSCLC patients, 390 or 520 mg twice-daily monotherapy, at least two weeks, expected median survival less than 20 weeks): 42 weeks
